Structures are written as SMILES.

The target of assay [1] is T1, human GLP-IR (Homo sapiens, UniProt P43220). The assay is described as follows: GLP1 activity | EC50 (M). An excerpt:
Table printed on a drawing sheet, FIG. 1A Head of the field: GLP1 activity | EC50 (M) The patent's description of the figure: FIG. 1A-1B: Synthetic Peptides (FIG. 1A discloses SEQ ID NOS 3948 and 3275-3298 and FIG. 1B discloses SEQ ID NOS 3948 and 3299-3302, all respectively, in order of appearance) First copying reader's note: The first head row prints a reference sequence (residues at positions 7-35) above the position numbers; two fully empty rows separate groups of peptides. Where the first naming reader finds the target: passage: CHOK1 cells stably expressing the human GLP-IR were used to measure peptide or recombinant fusion-induced cAMP production

For assay [2], the target named is T1, human GLP-IR. Briefly: GLP1 activity | EC50 (pM). An excerpt:
Table printed on a drawing sheet, FIG. 1A
Head of the field: GLP1 activity | EC50 (pM)
The patent's description of the figure: FIG. 1A-1B: Synthetic Peptides (FIG. 1A discloses SEQ ID NOS 3948 and 3275-3298 and FIG. 1B discloses SEQ ID NOS 3948 and 3299-3302, all respectively, in order of appearance)
First copying reader's note: The first head row prints a reference sequence (residues at positions 7-35) above the position numbers; two fully empty rows separate groups of peptides.
Where the first naming reader finds the target: passage: CHOK1 cells stably expressing the human GLP-IR were used to measure peptide or recombinant fusion-induced cAMP production

T1 sequence (P43220 24-463 limits assumed): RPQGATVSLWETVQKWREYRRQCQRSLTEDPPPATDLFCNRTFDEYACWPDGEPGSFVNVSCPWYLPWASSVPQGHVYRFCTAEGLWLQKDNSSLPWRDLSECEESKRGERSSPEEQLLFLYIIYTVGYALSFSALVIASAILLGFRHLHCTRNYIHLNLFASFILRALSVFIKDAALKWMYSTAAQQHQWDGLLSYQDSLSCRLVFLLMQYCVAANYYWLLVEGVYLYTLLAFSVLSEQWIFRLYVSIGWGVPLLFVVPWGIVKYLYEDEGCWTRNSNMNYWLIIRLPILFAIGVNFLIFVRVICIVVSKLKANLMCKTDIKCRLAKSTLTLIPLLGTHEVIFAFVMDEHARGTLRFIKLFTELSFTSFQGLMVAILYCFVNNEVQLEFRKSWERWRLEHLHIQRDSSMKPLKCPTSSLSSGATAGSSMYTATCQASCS

A word on the EC50: it is the concentration that produces a half-maximal response. Low values mean an effect from little substance, high ones a need for much substance. Regarding `CC[C@H](C)[C@H](NC(=O)[C@H](Cc1ccccc1)NC(=O)[C@H](CCC(=O)O)NC(=O)[C@H](CCCCN)NC(=O)[C@H](C)NC(=O)[C@H](C)NC(=O)[C@H](CCC(N)=O)NC(=O)CNC(=O)[C@H](CCC(=O)O)NC(=O)[C@H](CC(C)C)NC(=O)[C@H](Cc1ccc(O)cc1)NC(=O)[C@H](CO)NC(=O)[C@H](CO)NC(=O)[C@@H](NC(=O)[C@H](CC(=O)O)NC(=O)[C@H](CO)NC(=O)[C@@H](NC(=O)[C@H](Cc1ccccc1)NC(=O)[C@@H](NC(=O)CNC(=O)[C@H](CCC(=O)O)NC(=O)CNC(=O)[C@H](Cc1c[nH]cn1)NC(=O)[C@H](C)N)[C@@H](C)O)[C@@H](C)O)C(C)C)C(=O)N[C@@H](C)C(=O)N[C@@H](Cc1c[nH]c2ccccc12)C(=O)N[C@@H](CC(C)C)C(=O)N[C@H](C(=O)N[C@@H](CCCCN)C(=O)NCC(=O)O)C(C)C` [3166749#1, AHGEGTFTSDVSSYLEGQAAKEFIAWLVKG], a half-maximal response in assay [1] (EC50) required 0.0669 nM.
For `CC[C@H](C)[C@H](NC(=O)[C@H](Cc1ccccc1)NC(=O)[C@H](CCC(=O)O)NC(=O)[C@H](CCCCN)NC(=O)[C@H](C)NC(=O)[C@H](C)NC(=O)[C@H](CCC(N)=O)NC(=O)CNC(=O)[C@H](CCC(=O)O)NC(=O)[C@H](CC(C)C)NC(=O)[C@H](Cc1ccc(O)cc1)NC(=O)[C@H](CO)NC(=O)[C@H](CO)NC(=O)[C@@H](NC(=O)[C@H](CC(=O)O)NC(=O)[C@H](CO)NC(=O)[C@@H](NC(=O)[C@H](Cc1ccccc1)NC(=O)[C@@H](NC(=O)CNC(=O)[C@H](CCC(=O)O)NC(=O)CNC(=O)[C@H](Cc1c[nH]cn1)NC(=O)CN)[C@@H](C)O)[C@@H](C)O)C(C)C)C(=O)N[C@@H](C)C(=O)N[C@@H](Cc1c[nH]c2ccccc12)C(=O)N[C@@H](CC(C)C)C(=O)N[C@H](C(=O)N[C@@H](CCCCN)C(=O)NCC(=O)O)C(C)C` [3166961#1, GHGEGTFTSDVSSYLEGQAAKEFIAWLVKG], in assay [2], the EC50 came out at 0.205 nM.
Same read-out and setting: the same measure for `CC[C@H](C)[C@H](NC(=O)[C@H](Cc1ccccc1)NC(=O)[C@H](CCC(=O)O)NC(=O)[C@H](CCCCN)NC(=O)[C@H](C)NC(=O)[C@H](C)NC(=O)[C@H](CCC(N)=O)NC(=O)CNC(=O)[C@H](CCC(=O)O)NC(=O)[C@H](CC(C)C)NC(=O)[C@H](Cc1ccc(O)cc1)NC(=O)[C@H](CO)NC(=O)[C@H](CO)NC(=O)[C@@H](NC(=O)[C@H](CC(=O)O)NC(=O)[C@H](CO)NC(=O)[C@@H](NC(=O)[C@H](Cc1ccccc1)NC(=O)[C@@H](NC(=O)CNC(=O)[C@H](CCC(=O)O)NC(=O)CNC(=O)[C@H](Cc1c[nH]cn1)NC(=O)[C@@H](N)Cc1c[nH]cn1)[C@@H](C)O)[C@@H](C)O)C(C)C)C(=O)N[C@@H](C)C(=O)N[C@@H](Cc1c[nH]c2ccccc12)C(=O)N[C@@H](CC(C)C)C(=O)N[C@H](C(=O)N[C@@H](CCCCN)C(=O)NCC(=O)O)C(C)C` [3166962#1, HHGEGTFTSDVSSYLEGQAAKEFIAWLVKG]: 0.363 nM.

For the origin of these results see patent US12465652B2 (AMGEN INC., priority 2017, dated 2025).
